Measured values from ChEMBL document CHEMBL1201862, “PubChem BioAssay data set” (2004).
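Results reflect a 48-hour exposure of cells in 96-well plates to compound at five concentrations. Here, GI50 denotes the concentration required for 50% inhibition of growth.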 Active and inactive are the calls of the source. Rule as the data show it: active = GI50 up to about 1.1 µM and inactive = higher.

How the values were obtained:
Assay in all cases: inhibition of tumour cell growth, NCI panel, 48 h
SK-MEL-2 = system: SK-MEL-2
LXFL 529 = system: LXFL 529
A549 = system: A549
UO-31 = system: UO-31
HCT-116 = system: HCT-116
NCI-H226 = system: NCI-H226
COLO 205 = system: COLO 205
OVCAR-8 = system: OVCAR-8
M14 = system: M14
HOP-62 = system: HOP-62
DMS-273 = system: DMS-273
M19-MEL = system: M19-MEL
MOLT-4 = system: MOLT-4
SF-295 = system: SF-295
ACHN = system: ACHN
Malme-3M = system: Malme-3M
HCT-15 = system: HCT-15
786-0 = system: 786-0
TK-10 = system: TK-10
UACC-257 = system: UACC-257
NCI-H23 = system: NCI-H23
RPMI-8226 = system: RPMI-8226
SNB-75 = system: SNB-75
HCC 2998 = system: HCC 2998
SK-OV-3 = system: SK-OV-3
OVCAR-3 = system: OVCAR-3
SW-620 = system: SW-620
SK-MEL-5 = system: SK-MEL-5
KM12 = system: KM12
SF-268 = system: SF-268
SK-MEL-28 = system: SK-MEL-28
SNB-78 = system: SNB-78
OVCAR-4 = system: OVCAR-4
NCI-H460 = system: NCI-H460
DMS-114 = system: DMS-114
NCI-H522 = system: NCI-H522
HOP-92 = system: HOP-92
DLD-1 = system: DLD-1
HT-29 = system: HT-29
SF-539 = system: SF-539
HOP-18 = system: HOP-18
SR = system: SR
OVCAR-5 = system: OVCAR-5
IGROV-1 = system: IGROV-1
U-251 = system: U-251
SN12C = system: SN12C
RXF 631 = system: RXF 631
A498 = system: A498
UACC-62 = system: UACC-62
CAKI-1 = system: CAKI-1
KM-20L2 = system: KM-20L2
CCRF-CEM = system: CCRF-CEM
K562 = system: K562
HL-60 = system: HL-60
EKVX = system: EKVX
SNB-19 = system: SNB-19
LOX IMVI = system: LOX IMVI
RXF 393 = system: RXF 393

CC1(c2ccccc2)CC(c2cccc([N+](=O)[O-])c2)=NO1 (stereo not given)
GI50 (SK-MEL-2): > 100 µM (inactive) | GI50 (LXFL 529): 94.2 µM (inactive) | GI50 (A549): > 100 µM (inactive) | GI50 (UO-31): 82.8 µM (inactive) | GI50 (HCT-116): > 100 µM (inactive) | GI50 (NCI-H226): > 100 µM (inactive) | GI50 (COLO 205): > 100 µM (inactive) | GI50 (OVCAR-8): > 100 µM (inactive) | GI50 (M14): > 100 µM (inactive) | GI50 (HOP-62): > 100 µM (inactive) | GI50 (DMS-273): > 100 µM (inactive) | GI50 (M19-MEL): > 100 µM (inactive) | GI50 (MOLT-4): 56.2 µM (inactive) | GI50 (SF-295): 47.8 µM (inactive) | GI50 (ACHN): > 100 µM (inactive) | GI50 (Malme-3M): > 100 µM (inactive) | GI50 (HCT-15): > 100 µM | GI50 (786-0): > 100 µM (inactive) | GI50 (TK-10): > 100 µM (inactive) | GI50 (UACC-257): > 100 µM (inactive) | GI50 (NCI-H23): 89.1 µM (inactive) | GI50 (RPMI-8226): 51.3 µM (inactive) | GI50 (SNB-75): > 100 µM (inactive) | GI50 (HCC 2998): > 100 µM (inactive) | GI50 (SK-OV-3): > 100 µM (inactive) | GI50 (OVCAR-3): > 100 µM (inactive) | GI50 (SW-620): > 100 µM (inactive) | GI50 (SK-MEL-5): 56.2 µM (inactive) | GI50 (KM12): > 100 µM (inactive) | GI50 (SF-268): > 100 µM (inactive) | GI50 (SK-MEL-28): > 100 µM (inactive) | GI50 (SNB-78): > 100 µM (inactive) | GI50 (OVCAR-4): > 100 µM (inactive) | GI50 (NCI-H460): > 100 µM (inactive) | GI50 (DMS-114): 44.2 µM (inactive) | GI50 (NCI-H522): 30.1 µM (inactive) | GI50 (HOP-92): > 100 µM (inactive) | GI50 (DLD-1): > 100 µM (inactive) | GI50 (HT-29): 73.1 µM (inactive) | GI50 (SF-539): > 100 µM (inactive) | GI50 (HOP-18): > 100 µM (inactive) | GI50 (SR): > 100 µM (inactive) | GI50 (OVCAR-5): > 100 µM (inactive) | GI50 (IGROV-1): > 100 µM (inactive) | GI50 (U-251): > 100 µM (inactive) | GI50 (SN12C): > 100 µM (inactive) | GI50 (RXF 631): > 100 µM (inactive) | GI50 (A498): > 100 µM (inactive)

CCCCCCN(CCCCCC)C1=CC(=O)C(=O)c2ccccc21
GI50 (SK-MEL-2): 18.7 µM (inactive) | GI50 (LXFL 529): 19.3 µM (inactive) | GI50 (A549): 17.1 µM (inactive) | GI50 (UO-31): 13.4 µM (inactive) | GI50 (HCT-116): 17.5 µM (inactive) | GI50 (UACC-62): 16.5 µM (inactive) | GI50 (NCI-H226): 17.3 µM (inactive) | GI50 (CAKI-1): 15 µM (inactive) | GI50 (COLO 205): 16.7 µM (inactive) | GI50 (OVCAR-8): 16.1 µM (inactive) | GI50 (M14): 18.3 µM (inactive) | GI50 (HOP-62): 18.7 µM (inactive) | GI50 (DMS-273): 19.8 µM (inactive) | GI50 (M19-MEL): 2.26 µM (inactive) | GI50 (MOLT-4): 18.7 µM (inactive) | GI50 (KM-20L2): 18.2 µM (inactive) | GI50 (CCRF-CEM): 14.9 µM (inactive) | GI50 (SF-295): 15.7 µM (inactive) | GI50 (K562): 17.1 µM (inactive) | GI50 (ACHN): 17 µM (inactive) | GI50 (HL-60): 10.1 µM (inactive) | GI50 (Malme-3M): 21.3 µM (inactive) | GI50 (HCT-15): 17.7 µM | GI50 (786-0): 16.7 µM (inactive) | GI50 (TK-10): 21.7 µM (inactive) | GI50 (UACC-257): 15.2 µM (inactive) | GI50 (NCI-H23): 11.5 µM (inactive) | GI50 (RPMI-8226): 16.7 µM (inactive) | GI50 (SNB-75): 16.8 µM (inactive) | GI50 (HCC 2998): 20.9 µM (inactive) | GI50 (SK-OV-3): 17.7 µM (inactive) | GI50 (OVCAR-3): 3.55 µM (inactive) | GI50 (SW-620): 14.2 µM (inactive) | GI50 (SK-MEL-5): 17.2 µM (inactive) | GI50 (EKVX): 14.6 µM (inactive) | GI50 (KM12): 17.6 µM (inactive) | GI50 (SF-268): 18.7 µM (inactive) | GI50 (SK-MEL-28): 17.6 µM (inactive) | GI50 (SNB-78): 23 µM (inactive) | GI50 (OVCAR-4): 15.4 µM (inactive) | GI50 (NCI-H460): 17.3 µM (inactive) | GI50 (NCI-H522): 11.6 µM (inactive) | GI50 (HOP-92): 14.5 µM (inactive) | GI50 (DLD-1): 15.2 µM (inactive) | GI50 (HT-29): 15.1 µM (inactive) | GI50 (SF-539): 17.2 µM (inactive) | GI50 (SNB-19): 16.1 µM (inactive) | GI50 (HOP-18): 16.1 µM (inactive) | GI50 (LOX IMVI): 8.49 µM (inactive) | GI50 (SR): 15.8 µM (inactive) | GI50 (OVCAR-5): 19.1 µM (inactive) | GI50 (IGROV-1): 17.2 µM (inactive) | GI50 (U-251): 15.8 µM (inactive) | GI50 (SN12C): 16.4 µM (inactive) | GI50 (RXF 631): 14.7 µM (inactive) | GI50 (A498): 26.5 µM (inactive) | GI50 (RXF 393): 25.1 µM (inactive)

C=Cc1ccc(C)[n+](C[Si](C)(C)O[Si](C)(C)C)c1
GI50 (SK-MEL-2): > 100 µM (inactive) | GI50 (LXFL 529): > 100 µM (inactive) | GI50 (A549): > 100 µM (inactive) | GI50 (UO-31): > 100 µM (inactive) | GI50 (HCT-116): > 100 µM (inactive) | GI50 (UACC-62): > 100 µM (inactive) | GI50 (NCI-H226): > 100 µM (inactive) | GI50 (CAKI-1): > 100 µM (inactive) | GI50 (COLO 205): > 100 µM (inactive) | GI50 (OVCAR-8): > 100 µM (inactive) | GI50 (M14): > 100 µM (inactive) | GI50 (HOP-62): > 100 µM (inactive) | GI50 (DMS-273): > 100 µM (inactive) | GI50 (MOLT-4): > 100 µM (inactive) | GI50 (KM-20L2): > 100 µM (inactive) | GI50 (CCRF-CEM): > 100 µM (inactive) | GI50 (SF-295): > 100 µM (inactive) | GI50 (K562): > 100 µM (inactive) | GI50 (ACHN): > 100 µM (inactive) | GI50 (Malme-3M): > 100 µM (inactive) | GI50 (HCT-15): > 100 µM | GI50 (786-0): > 100 µM (inactive) | GI50 (UACC-257): > 100 µM (inactive) | GI50 (NCI-H23): > 100 µM (inactive) | GI50 (RPMI-8226): > 100 µM (inactive) | GI50 (SNB-75): > 100 µM (inactive) | GI50 (HCC 2998): > 100 µM (inactive) | GI50 (SK-OV-3): > 100 µM (inactive) | GI50 (OVCAR-3): > 100 µM (inactive) | GI50 (SW-620): > 100 µM (inactive) | GI50 (SK-MEL-5): > 100 µM (inactive) | GI50 (EKVX): > 100 µM (inactive) | GI50 (KM12): > 100 µM (inactive) | GI50 (SF-268): > 100 µM (inactive) | GI50 (SK-MEL-28): > 100 µM (inactive) | GI50 (SNB-78): > 100 µM (inactive) | GI50 (OVCAR-4): 42.3 µM (inactive) | GI50 (DMS-114): > 100 µM (inactive) | GI50 (NCI-H522): > 100 µM (inactive) | GI50 (DLD-1): > 100 µM (inactive) | GI50 (HT-29): > 100 µM (inactive) | GI50 (SF-539): > 100 µM (inactive) | GI50 (SNB-19): > 100 µM (inactive) | GI50 (LOX IMVI): > 100 µM (inactive) | GI50 (SR): > 100 µM (inactive) | GI50 (OVCAR-5): > 100 µM (inactive) | GI50 (IGROV-1): > 100 µM (inactive) | GI50 (U-251): > 100 µM (inactive) | GI50 (SN12C): > 100 µM (inactive) | GI50 (RXF 631): > 100 µM (inactive)
